The results in this text go back to ChEMBL document CHEMBL4680160, “A perspective review on fatty acid amide hydrolase (FAAH) inhibitors as potential therapeutic agents” (Eur J Med Chem, 2020).

Data set [1] concerns the target T1, Fatty-acid amide hydrolase 1 (Rattus norvegicus, UniProt P97612).
T1 sequence (P97612 whole entry): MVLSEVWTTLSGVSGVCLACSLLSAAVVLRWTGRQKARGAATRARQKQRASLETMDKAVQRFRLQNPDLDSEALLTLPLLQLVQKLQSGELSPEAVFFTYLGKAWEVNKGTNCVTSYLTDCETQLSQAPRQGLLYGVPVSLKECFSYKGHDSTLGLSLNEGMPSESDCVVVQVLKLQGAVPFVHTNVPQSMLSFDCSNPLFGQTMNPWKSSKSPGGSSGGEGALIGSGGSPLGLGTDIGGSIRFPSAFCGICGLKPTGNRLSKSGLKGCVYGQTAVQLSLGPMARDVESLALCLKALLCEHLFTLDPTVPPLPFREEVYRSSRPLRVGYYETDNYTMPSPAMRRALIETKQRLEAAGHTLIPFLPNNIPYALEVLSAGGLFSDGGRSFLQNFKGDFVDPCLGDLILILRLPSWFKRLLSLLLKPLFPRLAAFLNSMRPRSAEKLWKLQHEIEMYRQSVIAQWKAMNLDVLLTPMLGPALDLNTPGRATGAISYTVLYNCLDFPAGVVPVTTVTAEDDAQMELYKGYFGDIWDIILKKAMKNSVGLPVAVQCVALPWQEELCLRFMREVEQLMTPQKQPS
The data set can be described thus: Inhibition of FAAH in Sprague-Dawley rat brain homogenate using arachidonoyl-ethanolamide and anandamide [ethanolamine-1-3H] as substrate pre-incubated for 10 mins followed by substrate addition and measured after 30 mins by liquid scintillation counting method. It counts as tissue-based.

For data set [2], the target named is T2, Fatty-acid amide hydrolase 1 (Homo sapiens, UniProt O00519).
T2 sequence (O00519 whole entry): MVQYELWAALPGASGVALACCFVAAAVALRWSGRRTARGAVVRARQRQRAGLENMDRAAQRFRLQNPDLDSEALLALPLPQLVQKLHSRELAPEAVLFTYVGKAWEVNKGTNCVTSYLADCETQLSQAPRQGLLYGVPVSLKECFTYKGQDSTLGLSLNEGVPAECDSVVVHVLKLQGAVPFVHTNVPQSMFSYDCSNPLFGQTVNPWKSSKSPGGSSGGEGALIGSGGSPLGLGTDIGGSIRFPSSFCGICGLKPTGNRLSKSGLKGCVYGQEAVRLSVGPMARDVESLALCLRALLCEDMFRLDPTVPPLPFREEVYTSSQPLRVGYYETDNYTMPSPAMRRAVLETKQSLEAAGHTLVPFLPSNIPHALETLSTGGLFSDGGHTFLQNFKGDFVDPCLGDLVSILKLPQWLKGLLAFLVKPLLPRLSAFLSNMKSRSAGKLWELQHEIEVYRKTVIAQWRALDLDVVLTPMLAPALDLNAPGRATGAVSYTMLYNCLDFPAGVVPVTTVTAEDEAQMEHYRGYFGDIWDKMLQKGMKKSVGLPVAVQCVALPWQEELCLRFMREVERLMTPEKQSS
As to the kind of experiment: Inhibition of human FAAH expressed in HEK293 cells using AMC arachidonyl amide as substrate pre-incubated for 50 mins followed by substrate addition and measured after 30 mins by fluorescence method. In kind it is cell-based.

For data set [3], the target named is T2, Fatty-acid amide hydrolase 1. The data set can be described thus: Inhibition of human recombinant FAAH using (AMC) arachidonoyl amide as substrate preincubated for 5 mins followed by substrate addition and measured after 30 mins by fluorescence method.
Data set [4] has as its target T3, Fatty-acid amide hydrolase 1 (Mus musculus, UniProt O08914).
T3 sequence (O08914 whole entry): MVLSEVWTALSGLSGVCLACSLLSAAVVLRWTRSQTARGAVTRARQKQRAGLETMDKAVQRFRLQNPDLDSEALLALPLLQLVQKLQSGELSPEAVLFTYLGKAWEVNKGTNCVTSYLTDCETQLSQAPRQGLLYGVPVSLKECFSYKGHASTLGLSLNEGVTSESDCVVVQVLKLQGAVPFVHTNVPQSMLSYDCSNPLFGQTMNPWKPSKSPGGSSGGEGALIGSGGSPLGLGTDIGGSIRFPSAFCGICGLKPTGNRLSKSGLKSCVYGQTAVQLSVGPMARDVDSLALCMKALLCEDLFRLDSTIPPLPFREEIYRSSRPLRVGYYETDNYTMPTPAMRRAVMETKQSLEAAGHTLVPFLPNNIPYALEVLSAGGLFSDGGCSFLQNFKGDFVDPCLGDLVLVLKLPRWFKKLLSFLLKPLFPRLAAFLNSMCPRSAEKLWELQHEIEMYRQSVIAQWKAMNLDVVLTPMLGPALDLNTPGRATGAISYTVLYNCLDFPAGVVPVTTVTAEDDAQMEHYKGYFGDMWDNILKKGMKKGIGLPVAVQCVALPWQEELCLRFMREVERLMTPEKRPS
The data set can be described thus: Inhibition of FAAH in OF1 albino mouse brain homogenate assessed as reduction in [3H]ethanolamine production using [3H]anandamide as substrate. In kind it is tissue-based.

For data set [5], the target named is T4, Fatty-acid amide hydrolase 1 (Rattus norvegicus) (UniProt P97612).
T4 sequence (whole entry): T1 sequence (P97612 whole entry)
The data set can be described thus: Inhibition of FAAH in rat brain homogenate using AEA as substrate at 100 nM preincubated for 15 mins followed by substrate addition and measured after 10 mins by scintillation counting method relative to control. It counts as tissue-based. The conditions noted are these: time 25.0 min.

Data set [6] has as its target T1, Fatty-acid amide hydrolase 1. As to the kind of experiment: Inhibition of rat FAAH expressed in HEK293 cells using AEA as substrate by HPLC-MS/MS analysis. In kind it is cell-based.
Data set [7] concerns the target T2, Fatty-acid amide hydrolase 1. The data set can be described thus: Inhibition of FAAH (unknown origin).
Data set [8] has as its target T4, Fatty-acid amide hydrolase 1 (Rattus norvegicus). The data set can be described thus: Inhibition of FAAH in rat brain homogenate using [3H]AEA as substrate at 100 uM incubated for 10 mins by liquid scintillation spectroscopy relative to control. In kind it is tissue-based.
The target is the same in data set [9]. The data set can be described thus: Inhibition of rat FAAH expressed in HEK293 cells using AEA as substrate at 100 uM by liquid chromatography/mass spectroscopy relative to control. It counts as cell-based.
The nature of data set [10]: Kinetic solubility of compound in PBS at pH 7.4. It counts as physicochemical. The conditions noted are these: read-out: Kinetic_solubility.
Another data set deals with Cannabinoid receptor 2 (Homo sapiens, UniProt P34972). The data set can be described thus: Displacement of [3H]-CP55940 from recombinant human CB2 receptor expressed in CHO cells incubated for 90 mins by scintillation counting method. It counts as cell-based.
Cannabinoid receptor 2, sequence (P34972 whole entry): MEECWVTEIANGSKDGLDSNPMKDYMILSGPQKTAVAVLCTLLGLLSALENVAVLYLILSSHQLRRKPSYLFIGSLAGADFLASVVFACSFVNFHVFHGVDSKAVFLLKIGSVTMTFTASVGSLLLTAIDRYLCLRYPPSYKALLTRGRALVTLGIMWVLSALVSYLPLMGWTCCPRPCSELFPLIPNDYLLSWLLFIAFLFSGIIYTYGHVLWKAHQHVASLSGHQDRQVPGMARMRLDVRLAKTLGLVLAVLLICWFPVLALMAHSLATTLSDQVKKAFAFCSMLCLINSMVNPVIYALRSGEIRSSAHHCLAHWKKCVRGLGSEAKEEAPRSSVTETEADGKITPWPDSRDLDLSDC

`NC(=O)c1ccc(-c2ccc(OC(=O)NCCCCN3CCN(c4cccc(Cl)c4Cl)CC3)cc2)cc1`: the IC50 in data set [1] was 0.7 nM; in data set [2], 0.6 nM.
Turning to `O=C1/C(=N/c2nc3ccccc3[nH]2)c2ccccc2N1C(=O)c1ccc(Cl)cc1Cl`, the IC50 in [3] turned out to be 1490 nM.
For `COc1ccc2c(cccc2[C@H]2CO[C@H](CCCNC(=O)OCC(N)=O)OC2)c1`, in data set [4], the IC50 was determined as 62.5 nM.
As for `CN(C(=O)n1cnc(-c2ccc[n+]([O-])c2)c1)C1CCCCC1`, the inhibition in [5] came out at 85%.
In data set [6], `O=C(NCCc1ccc(-c2ccccc2)cc1)n1ccc(=O)[nH]c1=O` displayed an IC50 of 53 nM.
As to `O=C(NCCCCN1CCN(c2cccc(Cl)c2Cl)CC1)Oc1ccc2ccccc2c1`, the IC50 in data set [1] worked out at 13 nM; in data set [2] it was 2.7 nM.
Turning to `CCCCCOc1ccccc1-c1cc(C(=O)NC23CC4CC(CC(C4)C2)C3)no1`, the IC50 in [7] is more than 10000 nM.
Consider `Cc1ccccc1N1CCN(C(=O)C(C)c2ccc(CC(C)C)cc2)CC1` (stereo not drawn), for which the inhibition in [8] came out at 33%.
As to `CCCCCCCC/C=C\CCCCCCCC(=O)NO`, the inhibition in data set [9] turned out to be 98.3%.
`CC(C)Cc1ccc(C(C)C(=O)NCc2c(Cl)cccc2Cl)cc1` (stereo not drawn) gave an inhibition in data set [8] of 19%.
With `COc1cccc(N2CCN(C(=O)C(C)c3ccc(CC(C)C)cc3)CC2)c1` (stereo not drawn), the inhibition in data set [8] turned out to be 41%.
For the compound `O=C(NCCCCN1CCN(c2cccc(Cl)c2Cl)CC1)Oc1cccc2ccccc12`, in data set [10], the solubility kinetic was less than 1 µM. Also, the IC50 in data set [1] is 22 nM; in data set [2] it was 6.1 nM.
`CCCCCOc1ccc(-c2cc(C(=O)NC34CC5CC(CC(C5)C3)C4)no2)cc1`: on Cannabinoid receptor 2, the IC50 is more than 1000 nM.
With `O=C(NCCCc1ccccc1)n1cc(C(F)(F)F)c(=O)[nH]c1=O`, the midpoint of inhibition in [6], the IC50, lay at 21 nM.
